Experimental data reported in paper PMC9679992, “Fusicoccin-A Targets Cancerous Inhibitor of Protein Phosphatase 2A by Stabilizing a C-Terminal Interaction with 14-3-3” (ACS Chemical Biology, 2022).
Where two headings read alike, the source gives them in different places. Peptide text beside a SMILES is read from it. * marks the point of attachment. Cbz = O=C(OCc1ccccc1)*

Tests used:
GST-14-3-3η / CIP2A = test: GST-14-3-3η pulldown of CIP2A, MDA-MB-468 cell lysates; assay type: binding; settings: lysate preincubated with 200 μM ATP, 10 mM MgCl2, 1 hour 37 °C
Experimental: (§1) (A) Cartoon showing FC-A coupled to magnetic hydrazide beads. (B) Western blot showing the results of an FC-beads pulldown experiment in MDA-MB-468 cell lysates. (C) Western blot of the GST14-3-3η pulldown of CIP2A in MDA-MB-468 cell lysates. […] (D) Western blot of MDA-MB-468 cell lysates after treatment of cells with 30 μM FC-A or a vehicle control for 24 h before harvest. Quantification was performed after normalization to an actin loading control. […] Membrane was probed with our custom CIP2A pS904, C-terminal CIP2A, and actin antibodies. (E) Western blot of GST14-3-3η pulldown of CIP2A in MDA-MB-468 cell lysates from cells either treated with 30 μM FC-A or a vehicle control for 24 h before harvest. Representative Western blots are shown of three (B–D) or two (E) independent experiments.

GST-14-3-3η = target: T1, GST-14-3-3η (Homo sapiens, UniProt Q04917); test: Fluorescent polarization, GST14-3-3η titrated to FAM-pCIP2A peptide; assay type: binding, Hs; settings: FP, GST14-3-3η titrated to 100 nM FAM peptide, PBS pH 7.5, RT, 30 min
T1 construct: made in house; host or cells: Rosetta 2 (DE3)pLysS E. coli
T1 sequence (Q04917 1-246): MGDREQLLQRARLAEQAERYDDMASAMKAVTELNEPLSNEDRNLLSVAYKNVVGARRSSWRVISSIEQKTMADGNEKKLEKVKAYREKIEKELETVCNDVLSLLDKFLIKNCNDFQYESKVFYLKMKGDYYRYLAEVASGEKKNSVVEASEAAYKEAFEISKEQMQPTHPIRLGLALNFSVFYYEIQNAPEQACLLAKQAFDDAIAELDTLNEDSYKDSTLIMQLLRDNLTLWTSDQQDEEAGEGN
Experimental: Data is shown as mean ± SEM of three independent experiments. (E) Fluorescent polarization GST14-3-3η concentration–response curves generated in the presence of 10 μM FC-A or buffer using 100 nM of peptide 3. (F) Fluorescent polarization concentration–response curve of FC-A stabilizing the interaction between 1.5 μM GST14-3-3η and 100 nM peptide 3. Data is presented as the mean ± SEM of three independent experiments.
First, concentration–response curves were made using peptide 3, which was N-terminally labeled with fluorescein and in which Ser904 is phosphorylated by titrating to N-terminally GST-tagged 14-3-3η (GST-14-3-3η) at a fixed concentration of FC-A (10 μM) or a buffer control.
peptide was dissolved in phosphate saline buffer (PBS) with a pH of 7.5. Concentration curves of recombinant GST-14-3-3η were produced by mixing various concentrations of the protein diluted in assay buffer (PBS, pH=7.5) with a fixed 100 nM of the FAM labelled peptide and either a DMSO vehicle control or a fixed 10 μM Fusicoccin – A (FC-A). FC-A concentration curves were generated by mixing various concentrations of FC-A diluted in PBS with a fixed 100 nM of FAM - CIP2A and a fixed 4.7 μM of GST-14-3-3η. […]

14-3-3η/pCIP2A complex = test: Fluorescent polarization, FC-A stabilization of 14-3-3η/pCIP2A; set-up: species or system Hs; settings: FP, FC-A titrated to 100 nM peptide 3 and 1.5 μM GST14-3-3η (legend; SI: 4.7 μM); PBS, RT, 30 min; mean of three independent experiments; read-out: EC50 (FC-A enhancing binding of 14-3-3η to pCIP2A)
From the text: Figure 1 The C-terminus of CIP2A contains a mode-III 14-3-3 binding motif. (A) CIP2A’s C-terminus overlaid with 14-3-3 mode-III binding motif. The putative phosphosite is highlighted red with an alignment of the C-terminal amino acid sequence of CIP2A from different species shown below. (B) Chemical structure of Fusicoccin-A. (C) Overview of N-terminally biotinylated or fluorescein labeled CIP2A peptides either non- or phosphorylated on Ser904. (D) Homogeneous time-resolved FRET (HTRF) assay in which an N-terminally GST tagged 14-3-3η is targeted with an anti-GST europium (Eu) cryptate labeled monoclonal antibody and CIP2A peptides 1 and 2 used are N-terminally biotinylated and labeled with streptavidin conjugated to XL665. Concentration–response curves are shown for peptide 1 (Ser904) and peptide 2 (pSer904) in the presence or absence of a fixed 10 μM FC-A and 10 nM GST14-3-3η. Data is shown as mean ± SEM of three independent experiments. […]
FC-A beads were produced in a two-step reaction as previously described by Feyerabend and Weiler, 1987 by first generating FC-aldehyde (FC-Ald) which, was subsequently coupled to magnetic hydrazide beads (Chemicell, Cat#1404). […] Before coupling to magnetic hydrazide beads reaction efficiency was determined by HPLC analysis. […]

CIP2A Ser904 = assay type: cell-based
Experimental: as §1, with “experiments. […]” for “experiments.”

CIP2A = assay type: cell-based
Experimental: as §1, with “experiments. […]” for “experiments.”

[1] = system: cancer cells, including breast cancer; settings: FC-A and its derivatives; cited from earlier work
From the text: It has been shown that polo-like kinase 1 (PLK1) can bind to the C-terminal tip of CIP2A and phosphorylate its penultimate residue Ser904.[11] We hypothesized that phosphorylation of Ser904 could create a C-terminal binding site for the regulatory proteins 14-3-3, which act as molecular scaffolds in the cell through regulation of protein–protein interactions (PPIs) in key cellular processes. A unique feature of a subset of C-terminal 14-3-3 interactions is that they can be targeted by the diterpene glucoside Fusicoccin-A (FC-A) for PPI stabilization.[12],[13] In several studies, FC-A and its d ...

H^+-ATPase = settings: 14-3-3/FC-A; cited from earlier work
ERα = settings: cited from earlier work
CIP2A / 14-3-3 = test: GST14-3-3η pulldown of CIP2A from FC-A treated MDA-MB-468 cells; assay type: cell-based; settings: cells treated with 30 μM FC-A 24 h vs control; two independent experiments
Experimental: as §1, with “experiments. […]” for “experiments.”

[2] = target: T2, 14-3-3η (N-terminally GST tagged) (Homo sapiens, UniProt Q04917); test: HTRF assay of CIP2A C-terminal peptides with GST14-3-3η; assay type: binding, Hs; settings: HTRF concentration–response, nonphosphorylated peptide; 10 nM GST14-3-3η; presence or absence of 10 μM FC-A
T2 construct: made in house; host or cells: Rosetta 2 (DE3)pLysS E. coli
T2 sequence (Q04917 1-246): T1 sequence (Q04917 1-246)
From the text: Therefore, using (non)phosphorylated C-terminal CIP2A peptides, we investigated whether 14-3-3 could directly interact with CIP2A (Figure 1C). First, we developed a homogeneous time-resolved FRET (HTRF) assay for this putative interaction and its phosphorylation dependence (Figure 1D). […] Europium is excited at a wavelength of 337 nm resulting in emission at a wavelength of 620 nm. If 14-3-3 interacts with the CIP2A peptide, resonance energy transfer can occur resulting in excitation and emission of XL665 at a wavelength of 665 nm.
Data is shown as mean ± SEM of three independent experiments. […] Data is presented as the mean ± SEM of three independent experiments.

Nc1ncnc2c1ncn2[C@@H]1O[C@H](COP(=O)(O)OP(=O)(O)OP(=O)(O)O)[C@@H](O)[C@H]1O [ATP]
effect on CIP2A pulldown by GST-14-3-3η (GST-14-3-3η / CIP2A): more CIP2A was identified in pulldown samples

CC[C@H](C)[C@H](NC(=O)[C@H](COP(=O)(O)O)NC(=O)[C@H](CC(C)C)NC(=O)[C@H](CC(N)=O)NC(=O)[C@@H](NC(=O)[C@@H](NC(=O)[C@H](CCC(=O)O)NC(=O)[C@@H]1CCCN1C(=O)[C@H](CC(N)=O)NC(=O)[C@@H](NC(=O)c1ccc2c(c1)C(=O)OC21c2ccc(O)cc2Oc2cc(O)ccc21)[C@@H](C)CC)[C@@H](C)O)C(C)C)C(=O)O [FAM-pCIP2A peptide]
EC50 (GST-14-3-3η; buffer / DMSO control, read-out: EC50): 118 µM | EC50 (GST-14-3-3η; fixed 10 μM FC-A, read-out: EC50 (shift in presence of FC-A)): 2.76 µM

C=CC(C)(C)OC[C@H]1O[C@H](O[C@@H]2C3=C([C@H](C)COC(C)=O)C[C@H](O)[C@]3(C)/C=C3/[C@@H](COC)CC[C@H]3[C@@H](C)[C@H]2O)[C@H](O)[C@@H](OC(C)=O)[C@@H]1O [FC-A, Fusicoccin-A]
EC50 (14-3-3η/pCIP2A complex): 11.8 µM | Fold Change (Norm. to CTL): CIP2A pS904 (CIP2A Ser904): 2.55 | effect on Ser904 phosphorylation levels (CIP2A Ser904; FC-A 24 h, MDA-MB-468): Ser904 phosphorylation levels were enhanced | Fold Change (Norm. to CTL): CIP2A Tot. (CIP2A): 0.79 | effect on total CIP2A in presence of cycloheximide (CIP2A; 30 μM FC-A with 100 µg/mL cycloheximide, 24 h, MDA-MB-468, three independent experiments): no changes in total CIP2A over a 24 h period | effect on total CIP2A (CIP2A; FC-A 24 h, MDA-MB-468): did not affect total CIP2A | antiproliferative effects [1]: antiproliferative effects in cancer cells, including breast cancer | protection of penultimate C-terminal phosphorylation site (H^+-ATPase): shields the penultimate C-terminal phosphorylation site from phosphatases | effect on detection of C-terminal phosphorylation of ERα (ERα; MCF-7 cells treated with FC-A): necessary to detect C-terminal phosphorylation of the ERα | CIP2A in GST-14-3-3η pulldown (CIP2A / 14-3-3): more CIP2A could be detected in these samples compared to control cell lysates

CC(C)C[C@@H](C=O)NC(=O)[C@H](CC(C)C)NC(=O)[C@H](CC(C)C)NC(=O)OCc1ccccc1 [MG132] (Cbz-Leu-Leu-Leu-aldehyde)
effect on phosphorylation of ERα C-terminal tip (ERα; proteasome inhibitor MG132, in addition to FC-A): additional requirement for phosphorylation of the C-terminal tip

Bio-LSSGGKINPETVNL-S^904-I-COOH [peptide 1, N-terminally biotinylated nonphosphorylated C-terminal CIP2A peptide]
interaction with 14-3-3 [2]: does not interact with 14-3-3
